Laboratory results reported in publication PMC12682947, “Identification of New KCNT1‐Epilepsy Drugs by In Silico, Cell, and Drosophila Modeling” (Annals of Neurology, 2025).
Where a name gives a salt, the structure may show the parent alone.

What was measured:
Type in all cases: in vivo, Drosophila melanogaster
Details in all cases: drug in food
[1] = test system: Drosophila KCNT1 mutant line G288S; experiment: Bang-sensitive behavioral seizure assay, Drosophila KCNT1 mutant line G288S
Description: (§1) The Drosophila melanogaster lines carrying the WT human KCNT1 transgene (NM_020822_3) or KCNT1 mutant G288S, R398Q or R928C transgene placed downstream of the yeast UAS promoter, have been described previously.[11] WT or mutant human UAS‐KCNT1 flies were crossed to flies expressing the GAL4 transcriptional activator under the control of the GAD1 promoter (GABAergic driver, Bloomington stock number 51630 P2) to drive expression of KCNT1 in GABAergic neurons, involved in neuronal inhibition.[11]
(§2) The bang‐sensitive behavioral assay (also known as the banging assay) was used to test for the presence of a seizure phenotype in Drosophila.[11], [30] Experiments were performed and scored, as previously described,[11] with a minimum of 50 Drosophila tested for each genotype and drug concentration.
(§3) Four drugs were selected for in vivo analysis to determine their effects on the seizure phenotypes in transgenic Drosophila lines with human mutant KCNT1 channels. […]
(§4) In all experiments, experimenters were not blinded to variants or treatments, nor were samples randomly assigned to groups. Sample sizes were not calculated in advance and no data were excluded from the analysis. Data were analyzed using GraphPad Prism 9 software (San Diego, CA, USA). […] All data passed normality and lognormality Shapiro–Wilk tests, determined by GraphPad Prism 9. […]

[2] = test system: Drosophila KCNT1 mutant line R398Q; experiment: Bang-sensitive behavioral seizure assay, Drosophila KCNT1 mutant line R398Q
Description: as §1, §2, §3, §4

[3] = test system: Drosophila KCNT1 mutant line R928C; experiment: Bang-sensitive behavioral seizure assay, Drosophila KCNT1 mutant line R928C
Description: as §1, §2, §3, §4

| SMILES | reduction of the seizure phenotype [1] | reduction of the seizure phenotype [2] | reduction of the seizure phenotype [3] [%] |
| --- | --- | --- | --- |
| O=C(OCCN1CCN(c2cccc(C(F)(F)F)c2)CC1)c1ccccc1Nc1ccnc2cc(C(F)(F)F)ccc12 [antrafenine] | at least 50% | at least 50% | 25 |
| Cc1c(O)cccc1C(=O)N[C@@H](CSc1ccccc1)[C@H](O)CN1C[C@H]2CCCC[C@H]2C[C@H]1C(=O)NC(C)(C)C [nelfinavir mesylate] | 50% | 50% | 50 |
